Earlier results on four compounds are cited in patent US11504319B2, “Process of coloring keratinous material comprising the use of an organosilicon compound, an effect pigment, a further coloring compound and a film-forming polymer III” (Henkel AG & Co. KGaA, priority 2019, dated 2022).

For this data set the following is noted: 25° C.

As for `Nc1cc(S(=O)(=O)[O-])cc2cc(S(=O)(=O)[O-])c(N=Nc3ccccc3)c(O)c12.[Na+].[Na+]` [Acid Red 33, disodium salt of 5-amino-4-hydroxy-3-(phenylazo)-naphthalene-2,7-disulphonate], the solubility in water was 2500 µg/mL.

For `O=S(=O)([O-])c1ccc(N=Nc2c(O)ccc3ccccc23)cc1.[Na+]` [Acid Orange 7, sodium salt of 4-[(2-hydroxy-1-naphthyl)azo]benzene sulphonate], the solubility in water result is listed as “more than 7 g/L”.

As to `O=C([O-])C1=NN(c2ccc(S(=O)(=O)[O-])cc2)C(=O)C1N=Nc1ccc(S(=O)(=O)[O-])cc1.[Na+].[Na+].[Na+]` (stereo not shown) [Acid Yellow 23, trisodium salt of 4,5-dihydro-5-oxo-1-(4-sulfophenyl)-4-((4-sulfophenyl)azo)-1H-pyrazole-3-carboxylic acid], the “solubility in water (in words)” value is “highly soluble”.

For `O=C([O-])c1c(Cl)c(Cl)c(Cl)c(Cl)c1-c1c2c(Br)cc(=O)c(Br)c-2oc2c(Br)c(O)cc(Br)c12.O=C([O-])c1c(Cl)c(Cl)c(Cl)c(Cl)c1-c1c2c(Br)cc(=O)c(Br)c-2oc2c(Br)c(O)cc(Br)c12.[Na+].[Na+]` [Acid Red 92, disodium salt of 3,4,5,6-tetrachloro-2-(1,4,5,8-tetrabromo-6-hydroxy-3-oxoxanthen-9-yl)benzoic acid], the solubility in water result is recorded as “greater than 10 g/L”.
